Broadly, the half-life is the time in which the quantity being followed falls by half. A low value points to rapid decline. The IC50 is the point on the concentration scale where inhibition reaches its midpoint.

Series [1] relates to CYP3A4. Put plainly: CYP3A4 metabolism half-life (t1/2). The note with it: human.
Series [2] has as its target T1, 5-hydroxytryptamine receptor 1A (Homo sapiens, UniProt P08908).
T1 sequence (P08908 whole entry): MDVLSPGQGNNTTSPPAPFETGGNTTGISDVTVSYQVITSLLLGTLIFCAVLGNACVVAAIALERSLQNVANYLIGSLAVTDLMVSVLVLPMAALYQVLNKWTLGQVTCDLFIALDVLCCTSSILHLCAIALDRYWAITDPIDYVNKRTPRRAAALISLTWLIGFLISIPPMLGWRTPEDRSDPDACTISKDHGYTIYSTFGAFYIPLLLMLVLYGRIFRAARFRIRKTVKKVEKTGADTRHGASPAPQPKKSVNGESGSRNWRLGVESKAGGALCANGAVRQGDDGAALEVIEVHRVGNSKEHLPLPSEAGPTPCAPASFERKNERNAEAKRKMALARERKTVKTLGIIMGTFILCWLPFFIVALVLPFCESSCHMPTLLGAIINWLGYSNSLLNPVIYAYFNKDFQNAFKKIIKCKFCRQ
Put plainly: In vitro binding affinity against 5-hydroxytryptamine 1A receptor using [3H]8-OH-DPAT in human CYP3A4 assay.

SMILES strings stand for the structures. Some results are limits rather than exact numbers.

Turning to `CC1(C)CC(=O)N(CCCCN2CCN(c3ncc(F)cn3)CC2)C(=O)C1`, the half-life in series [1] stood at 78.3 min. Also, the IC50 in series [2] was determined as 0.205 µM.

Regarding `O=C1CC2(CCCC2)CC(=O)N1CCCCN1CCN(c2cnccn2)CC1`, the half-life in series [1] came to 5.5 min. In addition, the IC50 in series [2] was determined as 0.46 µM.

`O=C1c2ccccc2C(=O)N1CCCCN1CCN(c2ncc(F)cn2)CC1` had a half-life in series [1] of 20.4 min. Besides, the IC50 in series [2] came to 0.44 µM.

Consider `CC1(C)CC(=O)N(CCCCN2CCN(c3ncccn3)CC2)C(=O)C1` [GEPIRONE], for which the half-life in series [1] was 30.3 min.

In turn, `O=C1CC2(CCCC2)CC(=O)N1CCC(O)CN1CCN(c2cnccn2)CC1` (stereo unspecified) had a half-life in series [1] of 9.6 min. Besides, the IC50 in series [2] is more than 1 µM.

`COc1ccccc1N1CCN(CCCCN2C(=O)CC3(CCCC3)CC2=O)CC1`: the half-life in series [1] stood at 5.1 min. The IC50 in series [2] was found to be 0.002 µM.

`O=C1CC2(CCCC2)CC(=O)N1CCC(O)CN1CCN(c2ncccn2)CC1` (stereo unspecified) returned a half-life in series [1] of 10.2 min. In addition, the IC50 in series [2] is 0.84 µM.

`O=C1CC2(CCCC2)CC(=O)N1CCCCN1CCN(c2ncc(F)cn2)CC1` displayed a half-life in series [1] of 52.3 min. The IC50 in series [2] stood at 0.063 µM.

As for `CC(CCCN1C(=O)CC2(CCCC2)CC1=O)N1CCN(c2ccc(F)cc2)CC1` (stereo unspecified), in series [1], the half-life was determined as 2.4 min. In series [2], this molecule returned an IC50 of 0.099 µM.

Molecule `CC(CCCN1C(=O)CC(C)(C)CC1=O)N1CCN(c2ncc(F)cn2)CC1` (stereo unspecified) showed a half-life in series [1] of 40.1 min. The molecule further showed an IC50 in series [2] of 0.087 µM.

For the molecule `COc1ccccc1N1CCN(CC(O)CCN2C(=O)CC3(CCCC3)CC2=O)CC1` (stereo unspecified), the half-life in series [1] came out at 7.8 min. The molecule also came in with an IC50 in series [2] of 0.012 µM.

In series [1], `CC(O)(CCN1C(=O)CC2(CCCC2)CC1=O)CN1CCN(c2ncccn2)CC1` (stereo unspecified) had a half-life of 8.6 min. In series [2], the IC50 was found to be 1.46 µM.

For the molecule `O=C1CC2(CCCC2)CC(=O)N1CCCCN1CCN(c2ccc(F)cc2)CC1`, the half-life in series [1] was found to be 3.2 min. This molecule also registered an IC50 in series [2] of 0.064 µM.

Consider `O=C1c2ccccc2C(=O)N1CCCCN1CCN(c2ncccn2)CC1`, for which, in series [1], the half-life amounted to 26.8 min. The molecule further registered an IC50 in series [2] of 0.06 µM.

In series [1], `COc1ccc(N2CCN(CCCCN3C(=O)CC4(CCCC4)CC3=O)CC2)cc1` showed a half-life of 21.1 min. The IC50 in series [2] amounted to 0.93 µM.

As for `CC(CCCN1C(=O)c2ccccc2C1=O)N1CCN(c2ncc(F)cn2)CC1` (stereo unspecified), the half-life in series [1] came out at 18.2 min. Moreover, the IC50 in series [2] is 0.21 µM.

In turn, `CC(C)(CCN1C(=O)CC2(CCCC2)CC1=O)CN1CCN(c2ncccn2)CC1` registered a half-life in series [1] of 2.9 min. In series [2], this molecule registered an IC50 of 0.71 µM.

Regarding `O=C1CC2(CCCC2)CC(=O)N1CCC(O)CN1CCN(c2ccc(F)cc2)CC1` (stereo unspecified), the half-life in series [1] came to 3.8 min. The molecule further showed an IC50 in series [2] of 0.069 µM.

The molecule `CC(CCCN1C(=O)CC2(CCCC2)CC1=O)N1CCN(c2ncc(F)cn2)CC1` (stereo unspecified) returned a half-life in series [1] of 14.8 min. This molecule also returned an IC50 in series [2] of 0.046 µM.

For the molecule `CC(CCCN1C(=O)CC2(CCCC2)CC1=O)N1CCN(c2ncccn2)CC1` (stereo unspecified), the half-life in series [1] turned out to be 3.8 min. The IC50 in series [2] is 0.004 µM.

The molecule `O=C1CC2(CCCC2)CC(=O)N1CCCCN1CCN(c2ccccc2)CC1` had a half-life in series [1] of 8 min. The IC50 in series [2] worked out at 0.015 µM.

These data come from ChEMBL document CHEMBL1148245 (Bioorg Med Chem Lett, 2004).
